Measurements: ChEMBL document CHEMBL3421538, “Structure-activity relationships and molecular studies of novel arylpiperazinylalkyl purine-2,4-diones and purine-2,4,8-triones with antidepressant and anxiolytic-like activity” (Eur J Med Chem, 2015)
pKi: −log10 of the molar value. Calls of active or inactive are those of the source. No cut-off for these calls is given here.

What was measured:
[1] = target: T1, D(2) dopamine receptor (Homo sapiens, UniProt P14416); assay: Agonist activity at human D2L receptor expressed in HEK293 cells assessed as stimulation of cAMP levels at 1 uM relative to dopamine; format: functional, cell-based
[2] = target: T1, D(2) dopamine receptor; assay: Displacement of [3H]N-methylspiperone from human recombinant dopamine D2 receptor expressed in CHOK1 cells incubated for 60 mins by microbeta plate reader based method; format: cell-based, CHO-K1
[3] = target: T2, 5-hydroxytryptamine receptor 1A (Homo sapiens) (UniProt P08908); assay: Antagonist activity against human 5-HT1A receptor expressed in HEK293 cells assessed as inhibition of […]-induced cAMP levels at 0.1 uM; format: functional, cell-based
T2 sequence (whole entry): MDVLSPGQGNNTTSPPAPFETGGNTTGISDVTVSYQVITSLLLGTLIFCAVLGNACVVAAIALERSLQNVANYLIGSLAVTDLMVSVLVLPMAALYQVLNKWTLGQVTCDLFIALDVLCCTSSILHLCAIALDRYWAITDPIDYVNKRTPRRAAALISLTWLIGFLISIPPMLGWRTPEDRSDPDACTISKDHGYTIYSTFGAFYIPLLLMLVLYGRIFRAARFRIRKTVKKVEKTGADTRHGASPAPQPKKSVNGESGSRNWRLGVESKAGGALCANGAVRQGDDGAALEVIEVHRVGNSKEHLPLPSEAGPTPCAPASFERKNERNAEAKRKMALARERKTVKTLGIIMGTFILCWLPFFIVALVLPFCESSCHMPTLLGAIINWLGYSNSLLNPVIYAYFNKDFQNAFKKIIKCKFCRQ

[4] = target: T3, 5-hydroxytryptamine receptor 6 (Homo sapiens, UniProt P50406); assay: Displacement of [3H]LSD from human recombinant 5-HT6 receptor expressed in HEK293 cells assessed as total radioligand binding at 1 uM incubated for 60 mins by microbeta plate reader based method; format: cell-based
[5] = target: T4, 5-hydroxytryptamine receptor 1A (Rattus norvegicus) (UniProt P19327); assay: Displacement of [3H]8-OH-DPAT from rat hippocampus 5-HT1A receptor assessed as total radioligand binding at 1.66 x 10^-7 M incubated for 20 mins by microbeta plate reader based method
T4 sequence (whole entry): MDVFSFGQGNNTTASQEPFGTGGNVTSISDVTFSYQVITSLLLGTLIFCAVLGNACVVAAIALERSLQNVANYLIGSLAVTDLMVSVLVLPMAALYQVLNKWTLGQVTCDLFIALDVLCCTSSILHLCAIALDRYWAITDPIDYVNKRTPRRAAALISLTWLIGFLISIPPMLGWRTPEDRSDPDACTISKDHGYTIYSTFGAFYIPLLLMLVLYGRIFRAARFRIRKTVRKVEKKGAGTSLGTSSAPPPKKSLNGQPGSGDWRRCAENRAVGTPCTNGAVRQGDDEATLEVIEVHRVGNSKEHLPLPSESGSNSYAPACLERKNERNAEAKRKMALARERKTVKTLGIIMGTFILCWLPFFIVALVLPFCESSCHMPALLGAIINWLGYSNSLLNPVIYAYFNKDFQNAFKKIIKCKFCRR

[6] = target: T5, 5-hydroxytryptamine receptor 7 (Homo sapiens, UniProt P34969); assay: Displacement of [3H]LSD from human recombinant 5-HT7 receptor expressed in CHOK1 cells incubated for 60 mins by microbeta plate reader based method; format: cell-based, CHO-K1
[7] = target: T1, D(2) dopamine receptor; assay: Agonist activity at human D2L receptor expressed in HEK293 cells assessed as stimulation of cAMP levels at 0.1 uM relative to dopamine; format: functional, cell-based
[8] = system: Mus musculus; assay: Antidepressant-like activity in Swiss mouse assessed as reduction in immobility time at 10 mg/kg, ip administered 60 mins before test; format: functional; parameters: scale not given: the % may be the effect or the level left; conditions: route intraperitoneal
[9] = target: T3, 5-hydroxytryptamine receptor 6; assay: Displacement of [3H]LSD from human recombinant 5-HT6 receptor expressed in HEK293 cells assessed as total radioligand binding at 1.66 x 10^-7 M incubated for 60 mins by microbeta plate reader based method; format: cell-based
[10] = target: T2, 5-hydroxytryptamine receptor 1A (Homo sapiens); assay: Antagonist activity against human 5-HT1A receptor expressed in HEK293 cells assessed as inhibition of […]-induced cAMP levels at 1 uM; format: functional, cell-based
[11] = system: Mus musculus; assay: Antidepressant-like activity in Swiss mouse assessed as reduction in immobility time at 2.5 to 20 mg/kg, ip administered 60 mins before test; format: functional, organism-based
[12] = target: T5, 5-hydroxytryptamine receptor 7; assay: Antagonist activity against human 5-HT7 receptor expressed in HEK293 cells assessed as inhibition of 5-HT-induced cAMP levels at 0.1 uM; format: functional, cell-based
[13] = target: T2, 5-hydroxytryptamine receptor 1A (Homo sapiens); assay: Agonist activity at human 5-HT1A receptor expressed in HEK293 cells assessed as stimulation of cAMP levels at 1 uM relative to 8-OH-DPAT; format: functional, cell-based
[14] = target: D(3) dopamine receptor (Homo sapiens) (UniProt P35462); assay: Displacement of [3H]N-methylspiperone from dopamine D3 receptor (unknown origin) assessed as total radioligand binding at 1 uM incubated for 60 mins by microbeta plate reader based method
[15] = target: T5, 5-hydroxytryptamine receptor 7; assay: Agonist activity at human 5-HT7 receptor expressed in HEK293 cells assessed as stimulation of cAMP levels at 1 uM relative to 5HT; format: functional, cell-based
[16] = target: T2, 5-hydroxytryptamine receptor 1A (Homo sapiens); assay: Agonist activity at human 5-HT1A receptor expressed in HEK293 cells assessed as stimulation of cAMP levels at 0.1 uM relative to 8-OH-DPAT; format: functional, cell-based
[17] = target: T1, D(2) dopamine receptor; assay: Antagonist activity against human dopamine D2L receptor expressed in HEK293 cells assessed as inhibition of […]-induced cAMP levels at 1 uM; format: functional, cell-based
[18] = target: D(3) dopamine receptor (Homo sapiens) (UniProt P35462); assay: Displacement of [3H]N-methylspiperone from dopamine D3 receptor (unknown origin) assessed as total radioligand binding at 1.66 x 10^-7 M incubated for 60 mins by microbeta plate reader based method
[19] = target: T4, 5-hydroxytryptamine receptor 1A (Rattus norvegicus); assay: Displacement of [3H]8-OH-DPAT from rat hippocampus 5-HT1A receptor assessed as total radioligand binding at 1 uM incubated for 20 mins by microbeta plate reader based method
[20] = target: T1, D(2) dopamine receptor; assay: Antagonist activity against human dopamine D2L receptor expressed in HEK293 cells assessed as inhibition of […]-induced cAMP levels at 0.1 uM; format: functional, cell-based
[21] = target: T6, 5-hydroxytryptamine receptor 1A (Rattus norvegicus, UniProt P19327); assay: Displacement of [3H]8-OH-DPAT from rat hippocampus 5-HT1A receptor incubated for 20 mins by microbeta plate reader based method
T6 sequence (P19327 whole entry): T4 sequence (whole entry)

[22] = target: T5, 5-hydroxytryptamine receptor 7; assay: Antagonist activity against human 5-HT7 receptor expressed in HEK293 cells assessed as inhibition of 5-HT-induced cAMP levels at 1 uM; format: functional, cell-based
[23] = system: Mus musculus; assay: Anxiolytic-like activity in Swiss mouse assessed as increase in number of punished crossings measured during 60 seconds period at 5 to 20 mg/kg, ip by four-plate test; format: functional, organism-based
[24] = Selectivity index, ratio of Ki for rat hippocampus 5-HT1A receptor to Ki for human recombinant 5-HT7 receptor
[25] = target: T5, 5-hydroxytryptamine receptor 7; assay: Agonist activity at human 5-HT7 receptor expressed in HEK293 cells assessed as stimulation of cAMP levels at 0.1 uM relative to 5HT; format: functional, cell-based
[26] = system: Mus musculus; assay: Toxicity in Swiss mouse assessed as spontaneous locomotor activity at 2.5 to 20 mg/kg, ip measured during 2 to 6 mins; format: organism-based; parameters: route intraperitoneal; conditions: in vivo
[27] = system: Mus musculus; assay: Antidepressant-like activity in Swiss mouse assessed as reduction in immobility time at 0.625 to 5 mg/kg, ip administered 60 mins before test; format: functional, organism-based
[28] = system: Mus musculus; assay: Potency index, ratio of MED for imipramine to MED for compound for antidepressant-like activity in ip dosed Swiss mouse; format: functional
[29] = target: T3, 5-hydroxytryptamine receptor 6; assay: Displacement of [3H]LSD from human recombinant 5-HT6 receptor expressed in HEK293 cells incubated for 60 mins by microbeta plate reader based method; format: cell-based
[30] = system: Mus musculus; assay: Antidepressant-like activity in ip dosed Swiss mouse assessed as reduction in immobility time administered 60 mins before test; format: functional; conditions: read-out: MED
[31] = system: Mus musculus; assay: Toxicity in Swiss mouse assessed as spontaneous locomotor activity at 0.625 to 5 mg/kg, ip measured during 2 to 6 mins; format: organism-based; parameters: route intraperitoneal; conditions: in vivo
[32] = system: Mus musculus; assay: Antidepressant-like activity in Swiss mouse assessed as reduction in immobility time at 1.25 mg/kg, ip administered 60 mins before test; format: functional; parameters: scale not given: the % may be the effect or the level left; conditions: route intraperitoneal
[33] = system: Mus musculus; assay: Anxiolytic-like activity in Swiss mouse assessed as increase in number of punished crossings measured during 60 seconds period at 1.25 to 5 mg/kg, ip by four-plate test; format: functional, organism-based
[34] = system: Mus musculus; assay: Anxiolytic-like activity in Swiss mouse assessed as increase in number of punished crossings measured during 60 seconds period at 2.5 mg/kg, ip by four-plate test; format: functional; conditions: route intraperitoneal
[35] = system: Mus musculus; assay: Toxicity in Swiss mouse assessed as spontaneous locomotor activity at 0.625 to 10 mg/kg, ip; format: organism-based; parameters: dose 0.625-10 mg/kg, route intraperitoneal; conditions: in vivo
[36] = system: Mus musculus; assay: Toxicity in Swiss mouse assessed as spontaneous locomotor activity at 2.5 to 10 mg/kg, ip measured during 2 to 6 mins; format: organism-based; parameters: route intraperitoneal; conditions: in vivo
[37] = system: Mus musculus; assay: Antidepressant-like activity in Swiss mouse assessed as reduction in immobility time at 2.5 to 10 mg/kg, ip administered 60 mins before test; format: functional, organism-based
[38] = system: Mus musculus; assay: Anxiolytic-like activity in Swiss mouse assessed as increase in number of punished crossings measured during 60 seconds period at 0.625 to 10 mg/kg, ip by four-plate test; format: functional, organism-based

Sequence of D(3) dopamine receptor (Homo sapiens) (P35462 whole entry): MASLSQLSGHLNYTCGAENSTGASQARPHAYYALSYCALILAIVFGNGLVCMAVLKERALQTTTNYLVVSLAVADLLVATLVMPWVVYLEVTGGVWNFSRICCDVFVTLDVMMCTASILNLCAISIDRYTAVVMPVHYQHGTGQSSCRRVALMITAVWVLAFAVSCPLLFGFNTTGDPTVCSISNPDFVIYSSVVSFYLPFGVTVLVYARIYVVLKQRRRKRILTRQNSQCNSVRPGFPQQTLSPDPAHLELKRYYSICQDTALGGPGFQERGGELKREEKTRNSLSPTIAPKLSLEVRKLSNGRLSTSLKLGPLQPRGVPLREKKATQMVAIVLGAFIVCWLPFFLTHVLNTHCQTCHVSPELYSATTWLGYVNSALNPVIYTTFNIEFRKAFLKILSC
T3 sequence (P50406 whole entry): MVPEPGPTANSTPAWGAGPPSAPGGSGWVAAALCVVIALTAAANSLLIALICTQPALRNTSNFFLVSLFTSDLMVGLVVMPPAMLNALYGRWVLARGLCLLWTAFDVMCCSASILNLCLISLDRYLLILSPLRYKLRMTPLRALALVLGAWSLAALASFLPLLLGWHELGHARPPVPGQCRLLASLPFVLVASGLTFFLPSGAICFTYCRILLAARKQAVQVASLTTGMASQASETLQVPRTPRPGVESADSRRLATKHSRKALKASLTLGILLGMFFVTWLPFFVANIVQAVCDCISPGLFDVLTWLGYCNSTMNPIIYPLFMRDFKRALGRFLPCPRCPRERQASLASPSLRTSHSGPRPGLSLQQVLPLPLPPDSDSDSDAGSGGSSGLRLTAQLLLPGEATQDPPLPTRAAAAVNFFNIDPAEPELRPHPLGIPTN
T5 sequence (P34969 whole entry): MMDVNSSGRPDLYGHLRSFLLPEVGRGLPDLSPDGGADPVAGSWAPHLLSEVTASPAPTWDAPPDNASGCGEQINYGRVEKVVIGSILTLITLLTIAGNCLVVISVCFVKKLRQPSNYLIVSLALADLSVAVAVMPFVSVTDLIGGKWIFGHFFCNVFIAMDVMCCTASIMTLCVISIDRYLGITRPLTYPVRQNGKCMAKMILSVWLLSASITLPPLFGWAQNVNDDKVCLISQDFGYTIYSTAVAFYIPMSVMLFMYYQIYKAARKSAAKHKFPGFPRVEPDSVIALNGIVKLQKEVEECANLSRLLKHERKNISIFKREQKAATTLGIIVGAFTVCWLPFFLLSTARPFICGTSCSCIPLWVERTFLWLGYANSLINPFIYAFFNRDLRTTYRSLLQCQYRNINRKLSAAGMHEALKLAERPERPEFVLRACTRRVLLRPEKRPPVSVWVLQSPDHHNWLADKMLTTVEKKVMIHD
T1 sequence (P14416 whole entry): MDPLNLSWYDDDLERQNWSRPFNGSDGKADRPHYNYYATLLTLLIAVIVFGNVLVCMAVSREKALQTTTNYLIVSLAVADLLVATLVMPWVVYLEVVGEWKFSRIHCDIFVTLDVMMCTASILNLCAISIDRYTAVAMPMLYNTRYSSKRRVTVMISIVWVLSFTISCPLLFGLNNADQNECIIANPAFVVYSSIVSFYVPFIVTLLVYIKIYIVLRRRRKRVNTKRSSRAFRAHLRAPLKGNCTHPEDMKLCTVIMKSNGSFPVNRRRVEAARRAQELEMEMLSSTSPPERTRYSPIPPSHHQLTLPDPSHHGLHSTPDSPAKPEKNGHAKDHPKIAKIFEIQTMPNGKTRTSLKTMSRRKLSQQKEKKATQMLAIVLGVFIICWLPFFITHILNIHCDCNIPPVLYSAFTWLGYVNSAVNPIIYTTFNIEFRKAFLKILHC

Row | Activity [1] [%] | pKi [2] | inhibition [3] [%] | Activity [4] [%] | Activity [5] [%] | pKi [6] | Activity [7] [%] | Activity [9] [%] | inhibition [10] [%] | inhibition [12] [%] | Activity [13] [%] | Activity [14] [%] | Activity [15] [%] | Activity [16] [%] | inhibition [17] [%] | Activity [18] [%] | Activity [19] [%] | inhibition [20] [%] | pKi [21] | SMILES | Activity [8] [%] | further results
1 | 28 | 8.40 | 82.4 | 37 | 42 | 7.52 | 19.2 | 69 | 104 | 7.7 | 37.4 | 39 | -2.2 | 23.4 | 77.8 | 81 | 7 | 45 | 8.22 | Cn1c(=O)c2c(nc3n(CCCCN4CCN(c5ccccc5O)CC4)c(-c4ccccc4)cn23)n(C)c1=O | 17 | Activity [11]: Active; inhibition [22]: 64.3%; Activity [23]: inactive; Ratio Ki [24]: 0.2; Activity [25]: 4.5%; Activity [26]: Non-toxic
2 | 7.7 | 8.05 | 71.8 |  |  | 6.91 | 3.1 |  | 34.7 | -8.4 | 2.3 |  | 9.1 | -7 | 75.6 |  |  | 16.5 | 7.03 | Cn1c(=O)c2c(nc3n(CCCCCN4CCN(c5ccc(Cl)cc5)CC4)c(-c4ccccc4)cn23)n(C)c1=O |  | Activity [27]: Active; Ratio [28]: 4; pKi [29]: 7.35; minimal effective dose [30]: 1.25 mg/kg; Activity [31]: Non-toxic; Activity [32]: 40%; inhibition [22]: 22.1%; Ratio Ki [24]: 0.7; Activity [25]: 1.9%; Activity [33]: inactive
3 | 37.6 | 7.57 | 102 | 68 | 75 | 6.42 | 35.3 | 81 | 105 |  | 61.5 | 34 |  | 55.7 | 73.8 | 43 | 42 | 38.4 | > 9.00 | Cc1cccc(N2CCN(CCCCn3c(C)cn4c5c(=O)n(C)c(=O)n(C)c5nc34)CC2)c1C | 20 | Activity [34]: 67%; Activity [35]: Non-toxic; Activity [36]: Non-toxic; Activity [37]: Active; pKi [29]: 6.29; Activity [38]: Active
